Experimental data as given in patent US11453858B2, “Human plasma-like medium” (Whitehead Institute for Biomedical Research, priority 2016, dated 2022).
Each block holds one compound with its values, some of them ahead of it.

Legend:
NOMO1 cells [1] = assay: 5-FU treatment for LC/MS (intracellular 5-FU, FdUMP, FUMP); settings: 20 μM 5-FU, 24 hr
ODC domain of UMPS = target: T1, ODC domain of UMPS (Homo sapiens, UniProt P11172); settings: literature; cited from earlier work
T1 sequence (P11172 1-480): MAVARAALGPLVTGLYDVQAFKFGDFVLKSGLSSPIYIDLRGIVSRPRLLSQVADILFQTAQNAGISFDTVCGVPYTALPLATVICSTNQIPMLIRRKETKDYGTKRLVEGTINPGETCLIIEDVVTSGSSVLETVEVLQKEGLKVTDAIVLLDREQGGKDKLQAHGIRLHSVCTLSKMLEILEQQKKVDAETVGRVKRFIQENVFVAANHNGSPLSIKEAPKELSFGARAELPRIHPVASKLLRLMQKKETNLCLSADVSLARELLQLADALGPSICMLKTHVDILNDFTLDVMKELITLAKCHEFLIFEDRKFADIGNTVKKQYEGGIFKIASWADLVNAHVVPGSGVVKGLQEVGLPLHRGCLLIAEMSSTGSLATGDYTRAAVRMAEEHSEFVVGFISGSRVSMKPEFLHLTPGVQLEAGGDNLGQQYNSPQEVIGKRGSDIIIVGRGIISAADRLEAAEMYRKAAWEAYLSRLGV

recombinant UMPS = target: T2, recombinant UMPS (Homo sapiens, UniProt P11172); assay: in vitro UMPS activity assay (LC/MS detection of OMP and UMP); assay type: biochemical; settings: for UMP production by UMPS / abundance of OMP: increasing concentrations of inhibitor
T2 construct: The UMPS gene was amplified from the pDONR223-UMPS template using the primers JC624/JC625; made in house; host or cells: HEK-293T cells, transient transfection, anti-FLAG immunopurification
T2 sequence (P11172 2-480 limits assumed): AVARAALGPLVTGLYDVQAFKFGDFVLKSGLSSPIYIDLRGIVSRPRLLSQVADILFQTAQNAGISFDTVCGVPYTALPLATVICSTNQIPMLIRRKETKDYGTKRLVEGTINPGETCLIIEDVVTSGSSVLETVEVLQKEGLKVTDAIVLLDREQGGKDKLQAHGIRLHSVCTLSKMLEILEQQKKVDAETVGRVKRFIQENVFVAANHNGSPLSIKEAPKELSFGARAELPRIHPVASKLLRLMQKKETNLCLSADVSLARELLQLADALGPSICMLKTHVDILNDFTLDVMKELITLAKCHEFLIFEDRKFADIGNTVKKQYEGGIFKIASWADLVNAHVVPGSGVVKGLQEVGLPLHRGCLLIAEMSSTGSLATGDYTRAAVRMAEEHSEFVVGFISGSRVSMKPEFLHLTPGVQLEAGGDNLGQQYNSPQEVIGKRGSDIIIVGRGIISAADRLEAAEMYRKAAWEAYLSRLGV
Description: An UMPS mutant (Y37A, R155A), which was designed based on a recently deposited structure of the OPRT domain of human UMPS (Protein Data Bank entry 2WNS, chains A and B) (FIG. 12), had no activity and served as a negative control in the assay.
For metabolite profiling of LIMPS activity assay samples, reaction mixtures were extracted as described (see LIMPS activity assay) and 5 μL of each sample was injected for LC/MS analysis as described for profiling media samples, except that the mass spectrometer was operated in full scan, negative ionization mode only.
For orotate, PRPP, OMP, and UMP in UMPS assay samples, all settings as described for the tSIM scan used for FdUMP and FUMP were identical except that the maximum integration time was 200 msec, and the target masses were 155.0088 (corresponding to orotate), 323.0286 (corresponding to UMP), 367.0184 (corresponding to OMP), and 388.9445 (corresponding to PRPP).
For transfection of HEK-293 T cells, 4 million cells were plated in 15 cm culture dishes. After 24 hr, cells were transfected with 15 μg of pLJC2-UMPS-3×FLAG or pLJC2-UMPS (Y37A, R155A)-3×FLAG using the polyethylenimine method (Boussif et al., 1995). After 48 hr, cells were rinsed one time with ice-cold PBS and then immediately lysed with lysis buffer (1% Triton X-100, 40 mM Tris-HCl pH 7.5, 100 mM NaCl, 5 mM MgCl2, 1 tablet of EDTA-free protease inhibitor (Roche 11580800; per 25 mL buffer), 1 tablet of PhosStop phosphatase inhibitor (Roche 04906845001; per 10 mL buffer)). The cell lysates were cleared by centrifugation at 21130 g for 10 min at 4° C. For anti-FLAG immunoprecipitation, the FLAG-M2 affinity gel (Sigma A2220) was washed 3 times in lysis buffer. For each experiment, 500 μL of a 50/50 slurry of the affinity gel was then added to a pool of clarified lysates collected from 5 individual 15 cm culture dishes, and incubated with rotation for 3 hr at 4° C. Following immunoprecipitation, the beads were washed 2 times in lysis buffer and 3 times with lysis buffer containing 500 mM NaCl. Recombinant protein was then eluted in lysis buffer containing 1 mg/mL FLAG peptide for 1 hr at 4° C. The eluent was isolated by centrifugation at 100 g for 4 min at 4° C. (BioRad micro bio-spin column 732-6204), buffer exchanged (Amicon Ultra 30K NMWL) against 20 volumes of storage buffer (40 mM Tris-HCl pH 7.5, 100 mM NaCl, 1.5 mM dTT), mixed with glycerol (final concentration 15% v/v), and finally snap-frozen with liquid nitrogen and stored at −80° C. Protein samples were quantified using Bradford reagent and a BSA standard, and verified by 12% SDS-PAGE.
Reactions of each purified LIMPS variant (20-40 nM enzyme) with orotate (100 μM) and PRPP (300 μM) were carried out at 37° C. in 20 mM Tris-HCl pH 7.5, 5 mM Na2HPO4, […], 2 mM 2 mM dTT, 100 μM EDTA (adapted from (Han et al., 1995)), and various concentrations of putative inhibitors in a total volume of 100 μL. Following 20 min incubation, a 15 μL aliquot of the reaction mixture was removed and immediately added to 85 μL ice-cold 80% methanol for metabolite extraction, vortexed for 5 min, and centrifuged at 21130 g for 1 min at 4° C.
Stock solutions of 6-azauridine, 6-aza-UMP, 9-methyluric acid, allantoin, allopurinol, and uric acid were made up fresh at 200 mM in 1 M NaOH, and upon appropriate dilutions, had little effect on reaction pH.
An OMP chemical standard was not available.

K562 cells = assay: metabolite profiling of K562 cells (intracellular pyrimidine pathway metabolites); assay type: cell-based, human
Description: To determine which component(s) of HPLM^+dIFS affects the de novo pyrimidine synthesis pathway, K562 cells were cultured in HPLM^+dIFS derivatives lacking: (1) acetone, creatine, creatinine, formate, fructose, galactose, glutathione, glycerol, and hypoxanthine; (2) non-proteinogenic amino acids (8 metabolites); (3) water-soluble acids (8 metabolites); (4) urea; or (5) uric acid (FIG. 5A). […] HPLM^+dIFS contains uric acid at […], a concentration that is 40- and at least 500-fold greater than that of RPMI^+IFS and RPMI^+dIFS, respectively (FIG. 5C), and, importantly, its intracellular concentration reflects that of the corresponding culture medium (FIG. 5D).
To determine whether uric acid might cause inhibition of UMPS, an established UMPS inhibitor was studied to see if it had similar effects on the de novo pyrimidine biosynthesis pathway as uric acid in disclosed cells. […] Using LC/MS-based metabolite profiling, a species whose mass-to-charge ratio (m/z) matched the predicted m/z of allopurinol ribonucleotide was detected, and the magnitude correlated with the concentration of allopurinol in the media (FIG. 11D). Importantly, this species could be distinguished from its isomer, IMP, by their differing chromatographic retention times. […] However, a metabolite peak consistent with a putative uric acid ribonucleotide was not detected.
(§1) After 24 hr incubation, cells were centrifuged at 250 g for 5 min, resuspended in 1 mL ice-cold 0.9% sterile NaCl, and again centrifuged at 250 g for 5 min at 4° C. Metabolites were extracted in a 1 mL solution of 80% methanol containing 10 ng/mL phenylalanine-d8 as an internal standard. Following a 10 min vortex and centrifugation for […] 10 min at 4° C., samples were dried under nitrogen gas. Dried samples were stored at −80° C. and then resuspended in 100 μL water; 4 μL of each cell sample was injected for LC/MS analysis as described for profiling media samples. For all experiments, an additional culture replicate was set up identically and used for measuring cell number and volume, which were each measured using a Beckman Z2 Coulter Counter with a diameter setting of 8-30 μm.

[2] = test system: certain cancer cell lines; settings: Schwartz and Handschumacher, 1979; cited from earlier work
SW620 cells = assay: drug treatment assay, cell viability by Cell-Titer Glo; assay type: cell-based, human; settings: removal of uric acid from HPLM+dIFS
Description: SW620 cells were seeded at a density of 2000 cells/well and allowed to attach for 24 hr. 5-FU and doxorubicin were prepared in DMSO and dispensed using an HP D300 compound dispenser. Cell viability was assessed with Cell-Titer Glo at 4 days following treatment and luminescence was measured as described above.
(§2) Dose-response values were plotted in GraphPad Prism and fit using a One Site-Fit log IC50 equation.

NOMO1 cells [3] = assay: drug treatment assay, cell viability by Cell Titer-Glo; assay type: cell-based, human
Description: After 24 hr incubation, cells were treated with 5-FU (100 nM, 1 μM, 10 μM, 100 μM, or 1 mM) or doxorubicin (1.95 nM, 7.81 nM, 31.25 nM, 125 nM, or 500 nM). All wells, including untreated controls, contained 0.5% DMSO. Following addition of drugs, plates were gently shaken for 2 min. After 4 days of treatment, 200 μL from each well was transferred to a white 96-well plate (Greiner) and cell viability was assessed with Cell Titer-Glo (Promega). Luminescence was measured with a SpectraMax M5 Plate Reader (Molecular Devices) and normalized to an untreated control.
as §2

[4] = test system: six hematological cancer cell lines; assay: metabolite profiling of six hematological cancer cell lines; assay type: cell-based, human; settings: 350 μM uric acid added to RPMI+IFS, compared to RPMI+IFS
Description: To test the hypothesis that culturing cells in a medium that better mimics the metabolic composition of human plasma alters cellular metabolism compared to that in established media, the metabolite profiles of cells cultured in HPLM^+dIFS were compared to those in RPMI^+IFS or RPMI^+dIFS.
as §1

SMILES: O=c1[nH]cc(F)c(=O)[nH]1 [5-FU, 5-Fluorouracil]
FUMP levels (NOMO1 cells [1]; uric acid-containing HPLM+dIFS): below the limit of detection | intracellular abundances of FdUMP and 5-FU (NOMO1 cells [1]; uric acid-containing HPLM+dIFS vs lacking uric acid): little effect

SMILES: NC(=O)NC1NC(=O)NC1=O (stereo not drawn) [allantoin]
direct inhibition of UMPS (recombinant UMPS): did not directly inhibit UMPS

SMILES: O=c1[nH]cnc2c1cnn2C1O[C@H](COP(=O)(O)O)[C@@H](O)[C@H]1O (stereo partly drawn) [allopurinol ribonucleotide]
inhibition of the ODC domain of UMPS (ODC domain of UMPS): competitively inhibit the ODC domain of UMPS

SMILES: Oc1ncnc2[nH]ncc12 [allopurinol]
levels of carbamoylaspartate, dihydroorotate, orotate, orotidine, and OMP (K562 cells; HPLM+dIFS lacking uric acid, increasing concentrations of allopurinol): dose-dependently increased the levels | decrease in abundance of UTP (K562 cells; highest tested concentration of allopurinol): ~30% | sensitivity of cancer cell lines to 5-FU [2]: reduces the sensitivity of certain cancer cell lines to 5-FU | direct inhibition of UMPS (recombinant UMPS): did not directly inhibit UMPS

SMILES: COc1cccc2c1C(=O)c1c(O)c3c(c(O)c1C2=O)C[C@@](O)(C(=O)CO)C[C@@H]3O[C@H]1C[C@H](N)[C@H](O)[C@H](C)O1 [doxorubicin]
doxorubicin sensitivity (SW620 cells): did not influence doxorubicin sensitivity | potency of doxorubicin (NOMO1 cells [3]; culture in HPLM+dIFS compared to RPMI+IFS and RPMI+dIFS): without affecting the potency of doxorubicin | doxorubicin sensitivity (NOMO1 cells [3]; removal of uric acid from HPLM+dIFS): without affecting doxorubicin sensitivity

SMILES: O=c1[nH]c(=O)c2[nH]c(=O)[nH]c2[nH]1 [uric acid]
orotate and orotidine abundances (K562 cells; HPLM+dIFS containing increasing concentrations of uric acid): dose-dependently increased orotate and orotidine abundances | orotate and orotidine levels on removal of the component from HPLM+dIFS (K562 cells; dropout formulations of HPLM+dIFS): reduced orotate and orotidine levels to those of cells cultured in RPMI | accumulation of OMP (K562 cells; highest tested concentration (700 μM)): led to a detectable accumulation of OMP | UTP abundance [4]: cell line-dependent effects on UTP abundance | orotate and orotidine levels [4]: greatly boosted orotate and orotidine levels | direct inhibition of UMPS (recombinant UMPS): direct inhibitor of the ODC domain of UMPS | UMP production by UMPS (recombinant UMPS): dose-dependently inhibited UMP production by UMPS | abundance of OMP (recombinant UMPS): increased OMP | UMP levels relative to reactions containing vehicle (recombinant UMPS; uric acid at 1 mM): ~30%

More lines, main results first:

UMP levels relative to reactions containing vehicle (recombinant UMPS; 6-aza-UMP at 50 μM): ~3%
SMILES: O=c1cnn([C@@H]2O[C@H](COP(=O)(O)O)[C@@H](O)[C@H]2O)c(=O)[nH]1 [6-aza-UMP]
inhibition of the ODC domain of UMPS (ODC domain of UMPS): competitively inhibit the ODC domain of UMPS | UMP production by UMPS (recombinant UMPS): dose-dependently decreased UMP production by UMPS | abundance of OMP (recombinant UMPS): dramatically increased the abundance of OMP

direct inhibition of UMPS (recombinant UMPS): did not directly inhibit UMPS
SMILES: O=c1cnn([C@@H]2O[C@H](CO)[C@@H](O)[C@H]2O)c(=O)[nH]1 [6-azauridine]

direct inhibition of UMPS (recombinant UMPS): did not directly inhibit UMPS
SMILES: Cn1c(=O)[nH]c2c(=O)[nH]c(=O)[nH]c21 [9-methyluric acid]
levels of orotate, orotidine, or the other intermediates in the de novo pyrimidine biosynthesis pathway (K562 cells; 350 μM in HPLM+dIFS, compared to HPLM+dIFS lacking uric acid): did not alter the levels
